Experimental data from patent US6451833B1, “N-substituted (α-imidazolyl-toluyl)pyrrole compounds for treatment of circulatory disorders” (Pharmacia Corporation, priority 1991, dated 2002).

What was measured:
[1] = target: smooth muscle angiotensin II receptor; assay: Assay A: Angiotensin II Binding Activity; settings: displacement of 125I-AII, rat uterine membrane preparation
Protocol: Compounds of the invention were tested for ability to bind to the smooth muscle angiotensin II receptor using a rat uterine membrane preparation. […] Other chemicals were obtained from Sigma Chemical Co. This assay was carried out according to the method of Douglas et al [Endocrinology, 106, 120-124 (1980)]. Rat uterine membranes were prepared from fresh tissue. All procedures were carried out at 4° C. Uteri were stripped of fat and homogenized in phosphate-buffered saline at pH 7.4 containing 5 mM EDTA. The homogenate was centrifuged at 1500×g for 20 min., and the supernatant was recentrifuged at 100,000×g for 60 min. The pellet was resuspended in buffer consisting of 2 mM EDTA and 50 mM Tris-HCl (pH 7.5) to a final protein concentration of 4 mg/ml. […] The reaction was initiated by the addition of membrane protein and the mixture was incubated at 25° C. for 60 min. The incubation was terminated with ice-cold 50 mM Tris-HCl (pH 7.5) and the mixture was filtered to separate membrane-bound labelled peptide from the free ligand. The incubation tube and filter were washed with ice-cold buffer. Filters were assayed for radioactivity in a Micromedic gamma counter. […] Specific binding was calculated as total binding minus nonspecific binding. […] Binding data were analyzed by a nonlinear least-squares curve fitting program.

rabbit aortic rings = assay: Assay B: In Vitro Vascular Smooth Muscle Response for AII; settings: test antagonist at 10^-5 M, AII contraction
Protocol: The compounds of the invention were tested for antagonist activity in rabbit aortic rings. Male New Zealand white rabbits (2-2.5 kg) were sacrificed using an overdose of pentobarbital and exsanguinated via the carotid arteries. The thoracic aorta was removed, cleaned of adherent fat and connective tissue and then cut into 3-mm ring segments. The endothelium was removed from the rings by gently sliding a rolled-up piece of filter paper into the vessel lumen. The rings were then mounted in a water-jacketed tissue bath, maintained at 37° C., between moveable and fixed ends of a stainless steel wire with the moveable end attached to an FT03 Grass transducer coupled to a Model 7D Grass Polygraph for recording isometric force responses. […] The preparations were equilibrated for one hour before approximately one gram of passive tension was placed on the rings. Angiotensin II concentration-response curves were then recorded (3×10^−10 to 1×10^−5 M). Each concentration of AII was allowed to elicit its maximal contraction, and then AII was washed out repeatedly for 30 minutes before rechallenging with a higher concentration of AII. Aorta rings were exposed to the test antagonist at 10^−5 M for 5 minutes before challenging with AII. […] Each test antagonist was evaluated in aorta rings from two rabbits.

AII pressor response = assay: Assay C: In Vivo Intraduodenal Pressor Assay Response for AII Antagonists; design: species or system rat; settings: anesthetized Sprague-Dawley rats, 30 mg/kg i.d.; for Assay C Inhibition: inhibition of AII pressor response; for Assay C Duration: time from peak percent inhibition to 50% of peak
Protocol: Male Sprague-Dawley rats weighing 225-300 grams were anesthetized with Inactin (100 mg/kg, i.p.) and catheters were implanted into the trachea, femoral artery, femoral vein and duodenum. Arterial pressure was recorded from the femoral artery catheter on a Gould chart recorder (Gould, Cleveland, Ohio). The femoral vein catheter was used for injections of angiotensin II, mecamylamine and atropine. The tracheal catheter allows for airway patency, and the duodenal catheter was used for intraduodenal (i.d.) administration of test compounds. After surgery, the rats were allowed to equilibrate for 30 minutes. Mecamylamine (3 mg/kg, 0.3 ml/kg) and atropine (400 ug/kg, 0.3 ml/kg) were then given i.v. to produce ganglion blockade. These compounds were administered every 90 minutes throughout the test procedure. Angiotensin II was given in bolus doses i.v. (30 ng/kg in saline with 0.5% bovine serum albumin, 0.1 ml/kg) every 10 minutes three times or until the increase in arterial pressure produced was within 3 mmHg for two consecutive AII injections. The last two AII injections were averaged and were taken as the control AII pressor response. Ten minutes after the final control AII injection, the test compound (dissolved in sodium bicarbonate) was administered i.d. at a dose of 30 mg/kg in a volume of 0.2 ml. Angiotensin II injections were then given 5, 10, 20, 30, 45, 60, 75, 90, and 120 minutes after administration of the test compound and response of arterial pressure was monitored. The response to AII was calculated as percent of the control response and then the percent inhibition is calculated as 100 minus the percent control response. Duration of action of a test compound was defined as the time from peak percent inhibition to 50% of peak. One compound at one dose was tested in each rat. Each test compound was tested in two rats and the values for the two rats were averaged.

| Compound | IC50 [1] | Assay B pA2 (rabbit aortic rings) | Assay C Inhibition (AII pressor response) | Assay C Duration (AII pressor response) | melting point |
| --- | --- | --- | --- | --- | --- |
| CCCCc1nc(Cl)c(Cl)n1Cc1ccc(-n2cccc2C(=O)O)cc1 [Example 1, 1-[4-[(2-n-Butyl-4,5-dichloro-imidazolyl)methyl]phenyl]-1H-pyrrole-2-carboxylic Acid] | 5.8 µM | 5.6 | 74% | 5 to 10 min | 181 to 182 °C |
| CCCCc1nc(Cl)c(CO)n1Cc1ccc(-n2cccc2C(=O)O)cc1 [Example 2] |  |  | 92% | 20 to 30 min |  |
| CCCCc1nc(CO)c(Cl)n1Cc1ccc(-n2cccc2C(=O)O)cc1 [Example 3] |  |  |  |  | 180 to 181 °C |
